According to patent US20250073199A1, “Polymyxin Antibiotic Synergist and Anti-Gram-Negative Bacteria Pharmaceutical Composition” (Artivila Biopharma, priority 2022, published 2025):

How the values were obtained:
[1] = tested on: clinical polymyxin B-resistant strain of Klebsiella pneumoniae (38206); test: Mouse lung infection model, survival; assay type: in vivo, BALB/c female mice; conditions: intraperitoneal injection, 7 days
Protocol: The dronedarone and the polymyxin B were combined to form a pharmaceutical composition, and used in combination in a mouse infection model to further illustrate the present disclosure.
1) Establishment of lung infection model: 60 BALB/c female mice aged 6-8 weeks (weighing about 20 g) were injected intrapulmonically with a lethal dose of a clinical polymyxin B-resistant strain of Klebsiella pneumoniae (38206) to establish an infection model. The concentration of the clinical polymyxin B-resistant strain of Klebsiella pneumoniae 38206 was 1.0×10^8 CFUs per mouse;
2) Group treatment: The female mice were randomly divided into six groups (n=10 mice per group), and treated with the drug through intraperitoneal injection.
Among them, the six groups included a control group (injected with a PBS buffer), a treatment group I (injected with 0.2 mg/kg of the polymyxin B alone), a treatment group II (injected with 10 mg/kg of the dronedarone alone), a treatment group III (injected with a mixed solution of 0.2 mg/kg of the polymyxin B and 1 mg/kg of the dronedarone), a treatment group IV (injected with a mixed solution of 0.2 mg/kg of the polymyxin B and 5 mg/kg of the dronedarone), and a treatment group V (injected with a mixed solution of 0.2 mg/kg of the polymyxin B and 10 mg/kg of the dronedarone). […]

[2] = tested on: standard strain of Pseudomonas aeruginosa ATCC27853; test: Chessboard combination test, bacterial inhibition rate / MIC / FIC; assay type: cell-based; conditions: FIG. 5
Protocol: (§1) 1) a standard strain of Klebsiella pneumoniae ATCC13883, a clinical resistant strain of Klebsiella pneumoniae 38206, a standard strain of Acinetobacter baumannii ATCC19606, a standard strain of Escherichia coli ATCC25922, and a standard strain of Pseudomonas aeruginosa ATCC27853 were respectively cultured at 37° C. and under shaking at 220 rpm until OD600=0.6-0.8, where OD600 referred to the absorbance of the solution at a wavelength of 600 nm.
(§2) 2) The density of each bacterial culture with OD600=0.6-0.8 cultured in step 1) was adjusted to OD600=0.001 and placed in a chessboard experimental device.
(§3) 3) Polymyxin B was subjected to 2-fold serial dilution along the horizontal axis, and dronedarone was subjected to 2-fold serial dilution along the vertical axis.
(§4) 4) A blank group (added with a LB broth medium) and a control group (added with a LB broth medium and the standard bacterial solution cultured in step 1).
(§5) 5) The final volume in each well of a 96-well plate was controlled to be 100 μL. After incubation for 18 h, each well was added with 10 μL of MTT, incubated at a condition of 37° C. with protection from light for 30 min, and then determined for the absorbance at 600 nm with a microplate reader. The bacterial inhibition rate was calculated according to the formula: bacterial inhibition rate (%)=1−(OD600 of an experimental group−OD600 of the blank group)/(OD600 of the control group−OD600 of the blank group)×100%, and a bacterial calorimetry diagram was drawn (the results were shown in FIGS. 1-5).
(§6) The calculation equation of the FIC index was as follows:
(§7) FIC=MICab/MICa+MICba/MICb=FICa+FICb, wherein a represented the dronedarone, b represented the polymyxin B, MICab was a MIC value of a combination of the dronedarone and the polymyxin B, MICba was a MIC value of a combination of the polymyxin B and the dronedarone, MICa or MICb was a MIC value of the dronedarone or the polymyxin B, respectively, and FICa or FICb was a FIC value of the dronedarone or the polymyxin B, respectively.

[3] = tested on: clinical resistant strain of Klebsiella pneumoniae 38206; test: as above; assay type: cell-based; conditions: FIG. 2
Protocol: as §1, §2, §3, §4, §5, §6, §7

[4] = tested on: standard strain of Acinetobacter baumannii ATCC19606; test: as above; assay type: cell-based; conditions: FIG. 3
Protocol: as §1, §2, §3, §4, §5, §6, §7

[5] = tested on: standard strain of Escherichia coli ATCC25922; test: as above; assay type: cell-based; conditions: FIG. 4
Protocol: as §1, §2, §3, §4, §5, §6, §7

[6] = tested on: standard strain of Klebsiella pneumoniae ATCC13883; test: as above; assay type: cell-based; conditions: FIG. 1
Protocol: as §1, §2, §3, §4, §5, §6, §7

[7] = polymyxin B 2 μg/mL, dronedarone not used
[8] = in combination with dronedarone 2.5 μg/mL
[9] = in combination with dronedarone 5 μg/mL
[10] = polymyxin B 1 μg/mL, dronedarone not used
[11] = in combination with polymyxin B 0.25 μg/mL

Compound: polymyxin B
- survival rate ([1]; polymyxin B alone 0.2 mg/kg): 10%
- MICba (MIC of polymyxin B after combination with dronedarone) ([2]; in combination with dronedarone 10 μg/mL): 1 µg/mL
- inhibition percentage [2, 7]: 100%
- MIC used alone (MICa, MICb) ([2]; used alone): 2 µg/mL
- MICba (MIC of polymyxin B after combination with dronedarone) [3, 8]: 4 µg/mL
- inhibition percentage ([3]; polymyxin B 16 μg/mL, dronedarone not used): 100%
- MIC used alone (MICa, MICb) ([3]; used alone): 16 µg/mL
- MICba (MIC of polymyxin B after combination with dronedarone) [4, 9]: 0.25 µg/mL
- inhibition percentage [4, 10]: 100%
- MIC used alone (MICa, MICb) ([4]; used alone): 2 µg/mL
- MICba (MIC of polymyxin B after combination with dronedarone) [5, 9]: 0.25 µg/mL
- inhibition percentage [5, 10]: 100%
- MIC used alone (MICa, MICb) ([5]; used alone): 1 µg/mL
- MICba (MIC of polymyxin B after combination with dronedarone) [6, 8]: 0.13 µg/mL
- inhibition percentage [6, 7]: 100%
- MIC used alone (MICa, MICb) ([6]; used alone): 2 µg/mL

Compound: CCCCc1oc2ccc(NS(C)(=O)=O)cc2c1C(=O)c1ccc(OCCCN(CCCC)CCCC)cc1 [dronedarone, N-[2-butyl-3-[4-[3-(dibutylamino)propoxy]benzoyl]-1-benzofuran-5-yl]methanesulfonamide]
- survival rate ([1]; dronedarone alone 10 mg/kg): 10%
- inhibition at 20 µg/mL ([2]; Pseudomonas aeruginosa, ATCC27853, dronedarone alone at highest concentration 20 μg/mL, no polymyxin B, read-out: bacterial inhibition percentage): ~0%
- MIC ([2]; Pseudomonas aeruginosa, ATCC27853, used alone, read-out: MIC used alone (MICa, MICb)): > 20 µg/mL
- MICab (MIC of dronedarone after combination with polymyxin B) ([2]; in combination with polymyxin B 1 μg/mL): 10 µg/mL
- inhibition at 20 µg/mL ([3]; Klebsiella pneumoniae, dronedarone alone at highest concentration 20 μg/mL, no polymyxin B, read-out: bacterial inhibition percentage): ~0%
- MIC ([3]; Klebsiella pneumoniae, used alone, read-out: MIC used alone (MICa, MICb)): > 20 µg/mL
- MICab (MIC of dronedarone after combination with polymyxin B) ([3]; in combination with polymyxin B 4 μg/mL): 2.5 µg/mL
- inhibition at 20 µg/mL ([4]; Acinetobacter baumannii, ATCC19606, dronedarone alone at highest concentration 20 μg/mL, no polymyxin B, read-out: bacterial inhibition percentage): ~0%
- MIC ([4]; Acinetobacter baumannii, ATCC19606, used alone, read-out: MIC used alone (MICa, MICb)): > 20 µg/mL
- MICab (MIC of dronedarone after combination with polymyxin B) [4, 11]: 5 µg/mL
- inhibition at 20 µg/mL ([5]; Escherichia coli, ATCC25922, dronedarone alone at highest concentration 20 μg/mL, no polymyxin B, read-out: bacterial inhibition percentage): ~0%
- MIC ([5]; Escherichia coli, ATCC25922, used alone, read-out: MIC used alone (MICa, MICb)): > 20 µg/mL
- MICab (MIC of dronedarone after combination with polymyxin B) [5, 11]: 5 µg/mL
- inhibition at 20 µg/mL ([6]; Klebsiella pneumoniae, ATCC13883, dronedarone alone at highest concentration 20 μg/mL, no polymyxin B, read-out: bacterial inhibition percentage): ~0%
- MIC ([6]; Klebsiella pneumoniae, ATCC13883, used alone, read-out: MIC used alone (MICa, MICb)): > 20 µg/mL
- MICab (MIC of dronedarone after combination with polymyxin B) ([6]; in combination with polymyxin B 0.13 μg/mL): 2.5 µg/mL
